Values of other authors, collected in patent US20220211620A1, “Pain Relieving Spray” (Animal Ethics Pty Ltd, priority 2019, published 2022).

Conditions: up to about; depending on the method of administration

Question: Which “duration of anaesthesia typically provided” value does the source give for `CCCCN1CCCCC1C(=O)Nc1c(C)cccc1C` (stereo not shown) [bupivacaine] here?
Answer: The value was 6 to 12 h.
